Patent US20190091259A1, “Selective Chemotherapy Treatments and Diagnostic Methods Related Thereto” (Emory University, priority 2014, published 2019)

Key:
H146 = assay: In vitro cytotoxicity assay, cisplatin sensitivity, H146; assay type: cell-based; details: H146 cell line; read-out: IC50 concentration
H128 = assay: In vitro cytotoxicity assay, cisplatin sensitivity, H128; assay type: cell-based; details: H128 cell line; read-out: IC50 concentration
SCLC cell lines [1] = system: SCLC cell lines
PARylated proteins = assay: Level of PARylated proteins in treated cells; assay type: cell-based; details: veliparib 5 μmol/L
SCLC cell lines [2] = assay: Short-term MTS cytotoxicity assay in a panel of 9 SCLC cell lines; details: for single-agent growth inhibition: veliparib 0-128 μmol/L, panel of 9 SCLC cell lines
H146 xenografts = assay type: in vivo
[3] = Veliparib pharmacokinetic and platinum adducts in tumor-bearing animals; assay type: in vivo
Experimental: Treated animals were sacrificed either at 1 or 24 h posttreatment by cervical dislocation. Plasma and tumor samples were collected and immediately stored in liquid phase nitrogen or at −70° C. until ready for analysis. Tissues were homogenized in approximately 1 mL of PBS. Veliparib concentrations in plasma and tissue homogenates were quantitated by LC-MS. Concentrations of total platinum in plasma and tissue homogenate were quantitated by atomic absorption spectrophotometry (AAS).

Compound: N.N.[Cl][Pt][Cl] [cisplatin]
- IC50 (H146): 5.2 µM
- IC50 (H128): 14.5 µM

Compound: COc1cc([C@@H]2c3cc4c(cc3[C@@H](O[C@@H]3O[C@@H]5CO[C@@H](C)O[C@H]5[C@H](O)[C@H]3O)[C@H]3COC(=O)[C@H]23)OCO4)cc(OC)c1O [etoposide]
- correlation (CC) of the magnitude of potentiation by veliparib and the sensitivity of the cell line to the cytotoxic agent (single agent IC50) (SCLC cell lines [1]): 0.24

Compound: C[C@]1(c2nc3c(C(N)=O)cccc3[nH]2)CCCN1 [veliparib]
- level of PARylated proteins in cells (PARylated proteins): significant reduction
- single-agent growth inhibition (SCLC cell lines [2]): limited single-agent activity
- single-agent growth inhibition (SCLC cell lines [2]; listed as Veliparib): limited growth inhibition
- potentiated the activity of cisplatin, carboplatin, and etoposide (SCLC cell lines [2]; veliparib 5 μmol/L): not
- dose dependence of the potentiating effect of veliparib when combined with cisplatin (H146 xenografts; FIG. 2B): appeared dose dependent
- toxicity as indicated by the measured weight of the animals (H146 xenografts; veliparib combined with cisplatin): without additive toxicity
- intratumoral platinum concentration ([3]; in the presence of veliparib): Increased intratumoral platinum concentration
- intratumoral veliparib concentration sufficient for in vivo potentiation of the antitumor effect of cisplatin ([3]; tumor): 2 µmol/L
